Data reported in article PMC8286840, “Identifying SARS-CoV-2 antiviral compounds by screening for small molecule inhibitors of Nsp3 papain-like protease” (Biochemical Journal, 2021).
Counter-ions that a name gives are not always drawn. Like-named read-outs stand apart in the source and are kept apart here.

Assays:
[1] = target: T1, SARS-CoV-2 PLpro (nsp3 1564–1878) (Severe acute respiratory syndrome coronavirus 2, UniProt P0DTD1); assay: biochemical; set-up: FRET-quenched peptide (Pro3) cleavage by PLpro, 10 min pre-incubation, slope over 20 min, normalised to no-compound control; conditions: low concentration screen, read-out: % of control remaining
[2] = target: T1, SARS-CoV-2 PLpro (nsp3 1564–1878); assay: biochemical; set-up: FRET-quenched peptide (Pro3) cleavage by PLpro, 10 min pre-incubation, slope over 20 min, normalised to no-compound control; conditions: high concentration screen, read-out: % of control remaining

Q: How did the remaining activity at 1.25 µM ([1]; Well no.=883) turn out when `CCN(CC)CC(=O)Nc1c(C)cccc1C` [Lidocaine hydrochloride] was run?
A: 104%

Q: And the remaining activity at 3.75 µM ([2]; Well no.=883)?
A: 108%

Q: How did the remaining activity at 1.25 µM ([1]; Well no.=7713) turn out when `OCc1ccc(-c2nn(Cc3ccccc3)c3ccccc23)o1` [Lificiguat] was run?
A: 99%

Q: What about the remaining activity at 3.75 µM ([2]; Well no.=7713) of the same compound?
A: 82.8%

Q: What does the source list for `CS(=O)(=O)c1cccc(C[C@H](NC(=O)c2c(Cl)cc3c(c2Cl)CCN(C(=O)c2ccc4ccoc4c2)C3)C(=O)O)c1` [Lifitegrast]?
A: remaining activity at 1.25 µM ([1]; Well no.=8038): 94.5%; remaining activity at 3.75 µM ([2]; Well no.=8038): 95.3%

Q: Which remaining activity at 1.25 µM ([1]; Well no.=3655) does the source give for `CC1(C)O[C@H]2CC(=O)OC[C@]23[C@H]2CC[C@@]4(C)[C@H](c5ccoc5)OC(=O)[C@H]5O[C@]54[C@]2(C)C(=O)C[C@@H]13` [Limonin] here?
A: 99.2%

Q: What about the remaining activity at 3.75 µM ([2]; Well no.=3655) of the same compound?
A: 102%

Q: Which results are given for `CC#CCn1c(N2CCC[C@@H](N)C2)nc2c1c(=O)n(Cc1nc(C)c3ccccc3n1)c(=O)n2C` [Linagliptin (BI-1356)]?
A: remaining activity at 1.25 µM ([1]; Well no.=4883): 97%; remaining activity at 3.75 µM ([2]; Well no.=4883): 93.9%

Q: For `CCC[C@@H]1C[C@@H](C(=O)N[C@@H]([C@H]2O[C@H](SC)[C@H](O)[C@@H](O)[C@H]2O)[C@@H](C)O)N(C)C1` [Lincomycin], which remaining activity at 1.25 µM ([1]; Well no.=1549) is on record?
A: 102%

Q: And the remaining activity at 1.25 µM ([1]; Well no.=3377)?
A: 96.3%

Q: What about the remaining activity at 3.75 µM ([2]; Well no.=1549) of the same compound?
A: 105%

Q: And the remaining activity at 3.75 µM ([2]; Well no.=3377)?
A: 96.8%

Q: What does the source list for `CC(=O)NC[C@H]1CN(c2ccc(N3CCOCC3)c(F)c2)C(=O)O1` [Linezolid]?
A: remaining activity at 1.25 µM ([1]; Well no.=1782): 102%; remaining activity at 3.75 µM ([2]; Well no.=1782): 98.8%

Q: How did the remaining activity at 1.25 µM ([1]; Well no.=4338) turn out when `CCCCC/C=C\C/C=C\CCCCCCCC(N)=O` [Linoleamide] was run?
A: 101%

Q: What about the remaining activity at 3.75 µM ([2]; Well no.=4338) of the same compound?
A: 92.5%

Q: How did the remaining activity at 1.25 µM ([1]; Well no.=4349) turn out when `CCCCC/C=C\C/C=C\CCCCCCCC(=O)O` [Linoleic acid] was run?
A: 103%

Q: What about the remaining activity at 1.25 µM ([1]; Well no.=7029) of the same compound?
A: 94.8%

Q: And the remaining activity at 3.75 µM ([2]; Well no.=4349)?
A: 101%

Q: And the remaining activity at 3.75 µM ([2]; Well no.=7029)?
A: 85.7%

Q: `CC/C=C\C/C=C\C/C=C\CCCCCCCC(=O)O` [Linolenic acid] was tested. Which remaining activity at 1.25 µM ([1]; Well no.=4305) did it give?
A: 103%

Q: And the remaining activity at 1.25 µM ([1]; Well no.=4358)?
A: 101%

Q: What about the remaining activity at 3.75 µM ([2]; Well no.=4305) of the same compound?
A: 102%

Q: What about the remaining activity at 3.75 µM ([2]; Well no.=4358) of the same compound?
A: 100%

Q: For `O=C1N(c2ccccc2)c2ccccc2C1(Cc1ccncc1)Cc1ccncc1` [Linopirdine], which remaining activity at 1.25 µM ([1]; Well no.=822) is on record?
A: 104%

Q: And the remaining activity at 3.75 µM ([2]; Well no.=822)?
A: 105%

Q: How did the remaining activity at 1.25 µM ([1]; Well no.=8267) turn out when `C[C@@H](C(=O)Nc1ccc(Cl)cc1)[C@H]1CC[C@@H](c2ccnc3ccc(F)cc32)CC1` [Linrodostat] was run?
A: 97.9%

Q: And the remaining activity at 3.75 µM ([2]; Well no.=8267)?
A: 99.1%

Q: What does the source list for `O=C(O)CCCC[C@@H]1CCSS1` [Lipoic acid]?
A: remaining activity at 1.25 µM ([1]; Well no.=6915): 105%; remaining activity at 3.75 µM ([2]; Well no.=6915): 104%

Q: How did the remaining activity at 1.25 µM ([1]; Well no.=5945) turn out when `Clc1cccc(CN=C2Nc3ccccc3NC23CCNCC3)c1` [Liproxstatin-1] was run?
A: 98.7%

Q: What about the remaining activity at 1.25 µM ([1]; Well no.=6402) of the same compound?
A: 94.5%

Q: What about the remaining activity at 3.75 µM ([2]; Well no.=5945) of the same compound?
A: 97.6%

Q: What about the remaining activity at 3.75 µM ([2]; Well no.=6402) of the same compound?
A: 93.9%

Q: What does the source list for `COc1cccc(N(C)C(=S)Oc2ccc3c(c2)CCCC3)n1` [Liranaftate]?
A: remaining activity at 1.25 µM ([1]; Well no.=4672): 101%; remaining activity at 3.75 µM ([2]; Well no.=4672): 101%

Q: Which remaining activity at 1.25 µM ([1]; Well no.=7736) does the source give for `NCCCC[C@H](N[C@@H](CCc1ccccc1)C(=O)O)C(=O)N1CCC[C@H]1C(=O)O` [Lisinopril (dihydrate)] here?
A: 95.6%

Q: And the remaining activity at 3.75 µM ([2]; Well no.=7736)?
A: 96.7%

Q: Which results are given for `NCCCC[C@H](N[C@@H](CCc1ccccc1)C(=O)O)C(=O)N1CCC[C@H]1C(=O)O` [Lisinopril]?
A: remaining activity at 1.25 µM ([1]; Well no.=2270): 91.3%; remaining activity at 3.75 µM ([2]; Well no.=2270): 93.2%

Q: What does the source list for `C[C@H](CCC(=O)O)[C@H]1CC[C@H]2[C@@H]3CC[C@@H]4C[C@H](O)CC[C@]4(C)[C@H]3CC[C@]12C` [Lithocholic acid]?
A: remaining activity at 1.25 µM ([1]; Well no.=4646): 95.7%; remaining activity at 1.25 µM ([1]; Well no.=7307): 97.4%; remaining activity at 3.75 µM ([2]; Well no.=4646): 93.6%; remaining activity at 3.75 µM ([2]; Well no.=7307): 89.6%

Q: Which results are given for `Cc1ccc(F)cc1C(=O)Nc1ccc(C(=O)N2Cc3cccn3Cc3ccccc32)c(Cl)c1` [Lixivaptan]?
A: remaining activity at 1.25 µM ([1]; Well no.=6957): 91.5%; remaining activity at 3.75 µM ([2]; Well no.=6957): 88.9%

Q: Which remaining activity at 1.25 µM ([1]; Well no.=8326) does the source give for `CN1[C@@H](CC(=O)c2ccccc2)CCC[C@H]1C[C@H](O)c1ccccc1` [Lobeline (hydrochloride)] here?
A: 104%

Q: And the remaining activity at 3.75 µM ([2]; Well no.=8326)?
A: 100%

Q: What does the source list for `N#Cc1cc(NC(=O)C(=O)O)c(Cl)c(NC(=O)C(=O)O)c1` [Lodoxamide]?
A: remaining activity at 1.25 µM ([1]; Well no.=8241): 107%; remaining activity at 3.75 µM ([2]; Well no.=8241): 105%
